Publication PMC4336777 (Archives of biochemistry and biophysics, 2014)
Entries after “also recorded” stand apart in the source; their conditions may differ. Like-named read-outs stand apart in the source and are kept apart here.

Key:
Myeloperoxidase (MPO) [1] = molecular target: T1, Myeloperoxidase (MPO) (Homo sapiens, UniProt P05164); experiment: MPO fluorescence stopped flow assay; conditions: for k−3: same fixed constants; for Akaike weight / ΔAICc: Dynafit 3 model discrimination; for best fitting slow binding inhibition model: Akaike information criterion based discrimination
T1 sequence (P05164 165-273 limits assumed): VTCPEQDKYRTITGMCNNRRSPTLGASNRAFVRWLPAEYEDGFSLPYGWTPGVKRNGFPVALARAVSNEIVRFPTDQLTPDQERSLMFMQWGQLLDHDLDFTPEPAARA
T1 sequence (P05164 279-745 limits assumed): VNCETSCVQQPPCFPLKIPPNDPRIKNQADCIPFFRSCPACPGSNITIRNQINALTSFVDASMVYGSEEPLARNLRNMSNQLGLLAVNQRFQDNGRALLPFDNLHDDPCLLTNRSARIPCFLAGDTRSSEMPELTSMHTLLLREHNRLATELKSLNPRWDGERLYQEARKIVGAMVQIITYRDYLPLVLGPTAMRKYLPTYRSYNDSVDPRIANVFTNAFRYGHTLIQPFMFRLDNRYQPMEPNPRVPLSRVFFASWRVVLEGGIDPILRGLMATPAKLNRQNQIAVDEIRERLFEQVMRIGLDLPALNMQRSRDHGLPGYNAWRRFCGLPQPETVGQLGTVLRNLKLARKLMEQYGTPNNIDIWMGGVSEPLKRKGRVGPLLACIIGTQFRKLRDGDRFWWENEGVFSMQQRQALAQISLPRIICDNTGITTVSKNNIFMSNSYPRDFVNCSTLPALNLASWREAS

Myeloperoxidase (MPO) [2] = molecular target: T1, Myeloperoxidase (MPO); experiment: SDS-PAGE analysis of inhibitor-mediated cleavage of MPO; type: biochemical; conditions: MPO 1.2 μM, ADHP 40 μM, inhibitor 0-25 mM, H2O2 20 μM, 10 min, room temperature
Myeloperoxidase (MPO) [3] = molecular target: T1, Myeloperoxidase (MPO); conditions: for apparent kcat of MPO for ADHP in presence of inhibitor: Lineweaver-Burk
Myeloperoxidase (MPO) [4] = molecular target: T1, Myeloperoxidase (MPO); conditions: MPO 23 nM pre-incubated with inhibitor 1 hr without H2O2, dialysis, then H2O2
[5] = 1 or 2-step slow tight-binding fit, DynaFit 3, fixed k+1 = 10 μM^−1s^−1, k−1 = 80 s^−1, k+2 = 224 s^−1, pH 5.6, 25°C
[6] = 1 or 2-step slow tight-binding fit, DynaFit 3
[7] = 2-step slow tight-binding fit, DynaFit 3

SMILES | k+3 (Myeloperoxidase (MPO) [1]; [5]) | k−3 (Myeloperoxidase (MPO) [1]; [6]) | Akaike weight (Myeloperoxidase (MPO) [1]; 1 step model) | ΔAICc (Myeloperoxidase (MPO) [1]; 1 step model) | Akaike weight (Myeloperoxidase (MPO) [1]; 2 step model) | ΔAICc (Myeloperoxidase (MPO) [1]; 2 step model) | best fitting slow binding inhibition model (Myeloperoxidase (MPO) [1]) | Ki (Myeloperoxidase (MPO) [1]; Ki, Ki = k−3/k+3, DynaFit 3) [nM] | other results
NNC(=O)c1ccccc1N [2-ABAH, 2-aminobenzoic acid hydrazide] | 0.10 ± 0.0014 µM⁻¹ s⁻¹ | 0.026 ± 0.0003 s⁻¹ | 0.01127 | 8.9 | 0.9887 | 0 | two-step slow binding inhibitor; also recorded: two-step mechanism | 260 | k+4 (Myeloperoxidase (MPO) [1]; [7]): 0.0067 ± 0.0004 s⁻¹; k−4 (Myeloperoxidase (MPO) [1]; [7]): 0.0094 ± 0.002 s⁻¹; Ki (Myeloperoxidase (MPO) [1]; Ki* (overall inhibition constant, two-step model), two-step slow tight-binding model, Eq. 9): 160 nM; fold higher affinity inhibitor of Compound I as compared to isoniazid (Myeloperoxidase (MPO) [1]; from Ki* versus Ki of isoniazid): 62 fold
CN(C)c1cccc(C(=O)NN)c1 [3-DMABAH, 3-(dimethylamino) benzoic acid hydrazide] | – | – | – | – | – | – | – | 560 | –
NNC(=O)c1ccc(F)cc1 [4-FBAH, 4-fluorobenzoic acid hydrazide] | 0.0075 ± 4.93E-05 μM^−1s^−1 | 0.0062 ± 0.0001 s⁻¹ | 0.9196 | 0 | 0.0804 | 4.9 | – | 830 | –
NNC(=O)c1ccc([N+](=O)[O-])cc1 [4-NBAH, 4-nitrobenzoic acid hydrazide] | – | – | – | – | – | – | – | 3700 | –
NNC(=O)c1ccc(C(F)(F)F)cc1 [4-TFMBAH, 4-(trifluoromethyl) benzoic acid hydrazide] | 0.0013 ± 1.36E-05 μM^−1s^−1 | 0.004 ± 0.0002 s⁻¹ | 0.909 | 0 | 0.09104 | 4.6 | one-step slow binding inhibition model | 3080 | –
CC(=O)N1c2ccc(O)cc2Oc2cc(O)ccc21 [ADHP, 10-acetyl-3,7-dihydroxyphenoxazine, reference compound] | – | – | – | – | – | – | – | – | kon (Myeloperoxidase (MPO) [1]; read-out: apparent second order rate constant (K^appon)): 2100 ± 200 M⁻¹ s⁻¹
NNC(=O)c1ccccc1 [BAH, benzoic acid hydrazide] | 0.0098 ± 5.47E-05 μM^−1s^−1 | 0.0068 ± 9.5E-05 s^−1 | 0.9969 | 0 | 0.00315 | 11.5 | – | 690 | cleavage of MPO light chain-heme from heavy chain (Myeloperoxidase (MPO) [2]): light chain of MPO is cleaved from MPO
OO [H2O2, hydrogen peroxide] | – | – | – | – | – | – | – | – | Ki (Myeloperoxidase (MPO) [3]; read-out: apparent inhibitory rate constant Ki (substrate inhibition)): 10.8 nM
NNC(=O)c1ccncc1 [Isoniazid, isonicotinylhydrazine, reference compound] | 0.0011 ± 7.31E-06 μM^−1s^−1 | 0.011 ± 0.0001 s⁻¹ | 0.8857 | 0 | 0.1143 | 4.1 | one-step slow binding inhibition model | 10000 | –
[N-]=[N+]=[N-].[Na+] [NaN3, sodium azide, reference compound] | – | 0.156 ± 0.001 s⁻¹ | 0.8814 | 0 | 0.1186 | 4.0 | one-step slow binding inhibition model | – | reversibility of inhibitor binding to MPO after equilibrium dialysis (Myeloperoxidase (MPO) [4]): reversible; type of inhibition with ADHP (Myeloperoxidase (MPO) [3]; Lineweaver-Burk plots, 0, 7.5, 30 μM NaN3): competitive inhibition or mixed-type inhibition; apparent kcat of MPO for ADHP in presence of inhibitor (Myeloperoxidase (MPO) [3]; NaN3 7.5 μM): 161 s⁻¹; apparent kcat of MPO for ADHP in presence of inhibitor (Myeloperoxidase (MPO) [3]; NaN3 30 μM): 108 s⁻¹; fold reduction in apparent specificity constant (kcat/Km) (Myeloperoxidase (MPO) [3]; native system versus 30 μM NaN3): 11 fold; Ki (Myeloperoxidase (MPO) [1]; Ki = k−3/k+3, DynaFit 3): 840 nM; k+3 (Myeloperoxidase (MPO) [1]; pH 5.6): 0.185 ± 0.0018 µM⁻¹ s⁻¹
